Among the data in patent publication US11746100B2 (GLOBAL BLOOD THERAPEUTICS, INC., priority 2020, dated 2023) are pEC50 values, retold here.

Molecules are shown by their SMILES.

The target of the assay is T1, human ferroportin (Homo sapiens, UniProt Q9NP59).
T1 construct: luciferase reporter (read with the Nano-Glo Luciferase Assay System); expressed in transfected cells; host or cells: CHO cells, stably transfected, expression induced with doxycycline
T1 sequence (Q9NP59 1-571): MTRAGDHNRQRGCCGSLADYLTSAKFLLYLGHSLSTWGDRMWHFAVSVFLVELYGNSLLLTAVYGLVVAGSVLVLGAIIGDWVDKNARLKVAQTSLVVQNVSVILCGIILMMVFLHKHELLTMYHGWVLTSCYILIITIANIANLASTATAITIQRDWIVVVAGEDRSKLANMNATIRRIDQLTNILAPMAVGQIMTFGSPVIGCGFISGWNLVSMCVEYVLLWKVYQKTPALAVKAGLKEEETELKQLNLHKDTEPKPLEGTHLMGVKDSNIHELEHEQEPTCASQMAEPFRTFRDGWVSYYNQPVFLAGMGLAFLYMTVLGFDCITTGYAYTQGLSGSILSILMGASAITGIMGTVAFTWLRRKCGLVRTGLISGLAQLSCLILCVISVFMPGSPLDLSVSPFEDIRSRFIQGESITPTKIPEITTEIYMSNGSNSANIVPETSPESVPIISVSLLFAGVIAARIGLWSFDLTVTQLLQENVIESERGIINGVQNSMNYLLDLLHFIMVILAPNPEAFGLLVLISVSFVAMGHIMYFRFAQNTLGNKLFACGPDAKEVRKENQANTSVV
Description: Biological in-vitro ferroportin internalization assay (luciferase reporter). Type of assay: cell-based. Particulars: average pEC50; stably-transfected CHO cell line expressing human ferroportin tagged to a luciferase reporter; 6 h incubation with test compound. The gist of the method: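 Read-out is Nano-Glo luciferase signal after 6 h compound exposure, with average pEC50 derived. Cells are a stable CHO line carrying luciferase-tagged human ferroportin, pre-loaded 24 h with ferric ammonium citrate and doxycycline-induced for 24 h.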
For orientation: pEC50 means the negative decadic logarithm of the EC50, by convention in mol/L. Regarding `CN(CC(=O)Nc1ccc(OC(F)(F)F)nc1)c1nc(-c2cc3ccccc3cn2)nc2c1CCC2` [Compound 234, 2-{[2-(isoquinolin-3-yl)-5H,6H,7H-cyclopenta[d]pyrimidin-4-yl](methyl)amino}-N-[6-(trifluoromethoxy)pyridin-3-yl]acetamide], the pEC50 turned out to be 6.4. With `Cc1cncc(NC(=O)CN(C)c2nc(-c3cc4ccccc4cn3)nc3c2CCC3)c1` [Compound 235, 2-{[2-(isoquinolin-3-yl)-5H,6H,7H-cyclopenta[d]pyrimidin-4-yl](methyl)amino}-N-(5-methylpyridin-3-yl)acetamide], the negative-log EC50 (pEC50) is 7.5. The same measure for `CN(CC(=O)Nc1cn(C)cn1)c1nc(-c2cc3ccccc3cn2)nc2c1CCC2` [Compound 236, 2-{[2-(isoquinolin-3-yl)-5H,6H,7H-cyclopenta[d]pyrimidin-4-yl](methyl)amino}-N-(1-methyl-1H-imidazol-4-yl)acetamide]: 7.4. As to `CN(CC(=O)Nc1ccn(C)n1)c1nc(-c2cc3ccccc3cn2)nc2c1CCC2` [Compound 237, 2-{[2-(isoquinolin-3-yl)-5H,6H,7H-cyclopenta[d]pyrimidin-4-yl](methyl)amino}-N-(1-methyl-1H-pyrazol-3-yl)acetamide], the pEC50 stood at 7.1.

On to `COCCOc1ccnc(-c2nc3c(c(N(C)CC(=O)Nc4ccc(OC)nc4)n2)CCC3)c1` [Compound 238, 2-({2-[4-(2-methoxyethoxy)pyridin-2-yl]-5H,6H,7H-cyclopenta[d]pyrimidin-4-yl}(methyl)amino)-N-(6-methoxypyridin-3-yl)acetamide], for which the pEC50 is 7.5. Turning to `COCCOc1ccnc(-c2nc3c(c(N(C)CC(=O)NC(C)(C)C)n2)CCC3)c1` [Compound 239, N-tert-butyl-2-({2-[4-(2-methoxyethoxy)pyridin-2-yl]-5H,6H,7H-cyclopenta[d]pyrimidin-4-yl}(methyl)amino)acetamide], the pEC50 was 7.8. The same measure for `CN(CC(=O)Nc1cncc(F)c1)c1nc(-c2cc3ccccc3cn2)nc2c1CCC2` [Compound 240, N-(5-fluoropyridin-3-yl)-2-{[2-(isoquinolin-3-yl)-5H,6H,7H-cyclopenta[d]pyrimidin-4-yl](methyl)amino}acetamide]: 7.1. Next, `CN(CC(=O)NC(C)(C)C)c1nc(-c2cc(OCCF)ccn2)nc2c1CCC2` [Compound 241, N-tert-butyl-2-({2-[4-(2-fluoroethoxy)pyridin-2-yl]-5H,6H,7H-cyclopenta[d]pyrimidin-4-yl}(methyl)amino)acetamide]: 8.

In turn, `COc1ccc(NC(=O)CN(C)c2nc(-c3cc(OCCF)ccn3)nc3c2CCC3)cn1` [Compound 242, 2-({2-[4-(2-fluoroethoxy)pyridin-2-yl]-5H,6H,7H-cyclopenta[d]pyrimidin-4-yl}(methyl)amino)-N-(6-methoxypyridin-3-yl)acetamide] gave a negative-log EC50 (pEC50) of 7.7. `CN(CC(=O)Nc1cnn(C)c1)c1nc(-c2cc(OCCF)ccn2)nc2c1CCC2` [Compound 243, 2-({2-[4-(2-fluoroethoxy)pyridin-2-yl]-5H,6H,7H-cyclopenta[d]pyrimidin-4-yl}(methyl)amino)-N-(1-methyl-1H-pyrazol-4-yl)acetamide] returned a pEC50 of 7.4.

Compound `COc1ccc(NC(=O)CN(C)c2nc(-c3cc4cccnc4cn3)nc3c2CCC3)cn1` [Compound 244, N-(6-methoxypyridin-3-yl)-2-{methyl[2-(1,7-naphthyridin-6-yl)-5H,6H,7H-cyclopenta[d]pyrimidin-4-yl]amino}acetamide] registered a pEC50 of 6.4. As to `CN(CC(=O)NC(C)(C)C)c1nc(-c2cc(OC3COC3)ccn2)nc2c1CCC2` [Compound 245, N-tert-butyl-2-[methyl({2-[4-(oxetan-3-yloxy)pyridin-2-yl]-5H,6H,7H-cyclopenta[d]pyrimidin-4-yl})amino]acetamide], the pEC50 is given as 7.7. Take `COc1ccc(NC(=O)[C@@H](C)N(C)c2nc(-c3cc4ccccc4cn3)nc3c2CCC3)cn1` [Compound 250, (2R)-2-{[2-(isoquinolin-3-yl)-5H,6H,7H-cyclopenta[d]pyrimidin-4-yl](methyl)amino}-N-(6-methoxypyridin-3-yl)propanamide]: the pEC50 came to 7.4. With `C[C@H](C(=O)Nc1cccc(F)c1)N(C)c1nc(-c2cc(OCCO)ccn2)nc2c1CCC2` [Compound 251, (2R)—N-(3-fluorophenyl)-2-({2-[4-(2-hydroxyethoxy)pyridin-2-yl]-5H,6H,7H-cyclopenta[d]pyrimidin-4-yl}(methyl)amino)propanamide], the pEC50 amounted to 8.3. The same measure for `CN(CC(=O)Nc1cccc(F)c1)c1nc(-c2cc(OCCN3CCCC3)ccn2)nc2c1CCC2` [Compound 252, N-(3-fluorophenyl)-2-[methyl(2-{4-[2-(pyrrolidin-1-yl)ethoxy]pyridin-2-yl}-5H,6H,7H-cyclopenta[d]pyrimidin-4-yl)amino]acetamide]: 7.9; for `COc1ccc(NC(=O)CN(C)c2nc(-c3cc(OC4COC4)ccn3)nc3c2CCC3)cn1` [Compound 253, N-(6-methoxypyridin-3-yl)-2-[methyl({2-[4-(oxetan-3-yloxy)pyridin-2-yl]-5H,6H,7H-cyclopenta[d]pyrimidin-4-yl})amino]acetamide]: 7.6.

Regarding `CN(CC(=O)Nc1cnn(C)c1)c1nc(-c2cc(OC3COC3)ccn2)nc2c1CCC2` [Compound 254, 2-[methyl({2-[4-(oxetan-3-yloxy)pyridin-2-yl]-5H,6H,7H-cyclopenta[d]pyrimidin-4-yl})amino]-N-(1-methyl-1H-pyrazol-4-yl)acetamide], the pEC50 turned out to be 7. The same measure for `CN(CC(=O)N1CCCCC1)c1nc(-c2cc3ccccc3cn2)nc2c1CCC2` [Compound 255, 2-{[2-(isoquinolin-3-yl)-5H,6H,7H-cyclopenta[d]pyrimidin-4-yl](methyl)amino}-1-(piperidin-1-yl)ethan-1-one]: 6.9; for `CN1CCN(C(=O)CN(C)c2nc(-c3cc4ccccc4cn3)nc3c2CCC3)CC1` [Compound 256, 2-{[2-(isoquinolin-3-yl)-5H,6H,7H-cyclopenta[d]pyrimidin-4-yl](methyl)amino}-1-(4-methylpiperazin-1-yl)ethan-1-one]: 6.6; for `COc1ccc(NC(=O)CN(C)c2nc(-c3cc4ncccc4cn3)nc3c2CCC3)cn1` [Compound 257, N-(6-methoxypyridin-3-yl)-2-{methyl[2-(1,6-naphthyridin-7-yl)-5H,6H,7H-cyclopenta[d]pyrimidin-4-yl]amino}acetamide]: 7.

Compound `COc1ccc(NC(=O)CN(C)c2nc(-c3cc4cnccc4cn3)nc3c2CCC3)cn1` [Compound 258, N-(6-methoxypyridin-3-yl)-2-{methyl[2-(2,6-naphthyridin-3-yl)-5H,6H,7H-cyclopenta[d]pyrimidin-4-yl]amino}acetamide] gave a pEC50 of 6.3.

The compound `CCOc1ccnc(-c2nc3c(c(N(C)CC(=O)Nc4cnc(OC)nc4)n2)CCC3)c1` [Compound 259, 2-{[2-(4-ethoxypyridin-2-yl)-5H,6H,7H-cyclopenta[d]pyrimidin-4-yl](methyl)amino}-N-(2-methoxypyrimidin-5-yl)acetamide] showed a pEC50 of 7.1. The same measure for `COc1ncc(NC(=O)CN(C)c2nc(-c3cc(OCC(C)(C)O)ccn3)nc3c2CCC3)cn1` [Compound 260, 2-({2-[4-(2-hydroxy-2-methylpropoxy)pyridin-2-yl]-5H,6H,7H-cyclopenta[d]pyrimidin-4-yl}(methyl)amino)-N-(2-methoxypyrimidin-5-yl)acetamide]: 7.6; for `COc1ccc2cnc(-c3nc4c(c(N(C)CC(=O)NC(C)(C)C)n3)CCC4)cc2c1` [Compound 261, N-tert-butyl-2-{[2-(6-methoxyisoquinolin-3-yl)-5H,6H,7H-cyclopenta[d]pyrimidin-4-yl](methyl)amino}acetamide]: 7.6; for `COc1ccc2cc(-c3nc4c(c(N(C)CC(=O)NC(C)(C)C)n3)CCC4)ncc2c1` [Compound 262, N-tert-butyl-2-{[2-(7-methoxyisoquinolin-3-yl)-5H,6H,7H-cyclopenta[d]pyrimidin-4-yl](methyl)amino}acetamide]: 7.1. The compound `CN(CC(=O)N1CCCCC1)c1nc(-c2cc(OCCO)ccn2)nc2c1CCC2` [Compound 263, 2-({2-[4-(2-hydroxyethoxy)pyridin-2-yl]-5H,6H,7H-cyclopenta[d]pyrimidin-4-yl}(methyl)amino)-1-(piperidin-1-yl)ethan-1-one] had a pEC50 of 8. Next, `CN(CC(=O)Nc1ccc(F)nc1)c1nc(-c2cc3cnn(C4CCCCO4)c3cn2)nc2c1CCC2` (stereo not shown) [Compound 264, N-(6-fluoropyridin-3-yl)-2-[methyl({2-[1-(oxan-2-yl)-1H-pyrazolo[3,4-c]pyridin-5-yl]-5H,6H,7H-cyclopenta[d]pyrimidin-4-yl})amino]acetamide]: 6.5. For `CN(CC(=O)Nc1ccc(F)nc1)c1nc(-c2cc3cn[nH]c3cn2)nc2c1CCC2` [Compound 266, N-(6-fluoropyridin-3-yl)-2-[methyl(2-{1H-pyrazolo[3,4-c]pyridin-5-yl}-5H,6H,7H-cyclopenta[d]pyrimidin-4-yl)amino]acetamide], the pEC50 worked out at 7.3.
